# According to patent US12252701B2, “Chimeric antigen receptor T cell therapy” (KITE PHARMA, INC., priority 2020, dated 2025):
# Like-named read-outs stand apart in the source and are kept apart here.
# Columns and labels:
# [1] = Clinical pharmacokinetic data converted to in vitro concentrations; conditions: human, in vivo
# Excerpt: Given the different potencies of the JAK inhibitors and different pharmacokinetic properties for each drug, it was sought to test each drug at a relevant range of physiological concentrations based on clinical dosing and reported pharmacokinetic data from repeat dose studies. Reported Cmax values in patient sera were converted to in vitro concentrations and adjusted for reported plasma protein binding.
# [2] = test system: NALM6.GFP.LUC.CD19 target cells; assay: Serial killing assay; type: cell-based, human
# Description: CD19 CAR-T cells were thawed in RPMI media supplemented with HEPES, Penicillin/Streptomycin/L-Glutamine and 10% FBS and rested overnight. The following day, drugs were serially diluted and prepared in 96-well plates. Rested T cells were counted and normalized so that 25,000 or 8,333 T cells were plated with 25,000 NALM6.GFP.LUC.CD19 target cells (1:1 or 1:3 Effector:Target ratio) in the prepared 96-well plates. At 16 hour post-incubation and every 3-4 days, T cell killing of targets was measured via luciferase detection. D-luciferin substrate was added to the co-culture wells at a final concentration of 0.14 mg/mL and plates were incubated at 37° C. in the dark for 10 minutes. Luminescent signal was read immediately after in a VarioSkan™ LUX microplate reader. T cell-mediated cytotoxicity was calculated as follows: % Cytotoxicity=[1−luciferase signal of (sample of interest/target alone control)]*100. Afterwards, co-cultures were stained with LIVE/DEAD and antibodies against CD4, CD8 and KIP-1 and then washed. Cells were then analyzed and quantified via the Attune NxT flow cytometer. T cells were then repeatedly stimulated with fresh 25,000 target cells, and this process was repeated every 3-4 days.
# [3] = cited from earlier work
# CAR-T cells = assay: CAR-T cell expansion assay (KIP-1 or CD3/CD28 stimulation)
# Description: 96-well plates were coated with 100 μl of KIP-1 antibody per well at 1 μg/ml in PBS and plates were incubated at 4° C. overnight. CAR-T cells were thawed and were rested in ImmunoCult expansion medium and incubated overnight at 37° C. Cells were then counted and resuspended at 2 million cells/ml and seed at 200,000 cells per well in 100 μl of expansion medium with 10 ng/ml recombinant IL2. For groups treated with KIP-1, 100 μl of expansion medium were added with 2× final drug dilutions. For CD3/CD28 treated groups, 100 μl of expansion media were added with 2× final drug dilutions containing 25 μl/ml of CD3/CD28 T cell activator from StemCell Technologies. Cells were then incubated at 37° C. After 4 days, cells were counted and diluted 1 to 8-fold in expansion media and then transferred to a 24-well plate. Cell counts were repeated at day 7 and transferred to T25 flasks. On day 11, all cells were harvested and counted.
# CD19 CAR T cells = assay: CAR T cell cytokine production (Luminex) under CD19 K562, KIP-1 or CD2/3/28 stimulation
# [4] = E:T ratio 1:3, all doses tested
structure (smiles),measurement,setting,value
Nc1nc2cccc(-c3ccc(CN4CCS(=O)(=O)CC4)cc3)n2n1 [GS-829845],clinically relevant dose level (in vitro concentration),[1],~4 µM
same,T-cell counts,[2]; E:T ratio 1:1,increased T-cell counts in a dose-dependent manner
same,serial killing,[2]; E:T ratio 1:1,enhanced serial killing
same,T-cell counts,[2]; [4],no negative impacts were observed
same,serial killing,[2]; [4],no negative impacts
same,Cmax,"[3]; clinical dosing, patient sera, repeat dose studies",3540 ng/mL
same,Protein binding,"[3]; plasma protein binding, reported",~58%
same,% viability,"CAR-T cells; CD3/CD28, dose 1000 nM, day 0",75%
same,% viability,"CAR-T cells; CD3/CD28, dose 1000 nM, day 4",55.6%
same,% viability,"CAR-T cells; CD3/CD28, dose 1000 nM, day 8",76.2%
same,% viability,"CAR-T cells; CD3/CD28, dose 1000 nM, day 12",88.9%
same,% viability,"CAR-T cells; CD3/CD28, dose 5000 nM, day 0",75%
same,% viability,"CAR-T cells; CD3/CD28, dose 5000 nM, day 4",56.5%
same,% viability,"CAR-T cells; CD3/CD28, dose 5000 nM, day 8",75.6%
same,% viability,"CAR-T cells; CD3/CD28, dose 5000 nM, day 12",88.8%
same,% viability,"CAR-T cells; KIP-1, dose 1000 nM, day 0",75%
same,% viability,"CAR-T cells; KIP-1, dose 1000 nM, day 4",48.4%
same,% viability,"CAR-T cells; KIP-1, dose 1000 nM, day 8",63%
same,% viability,"CAR-T cells; KIP-1, dose 1000 nM, day 12",82.5%
same,% viability,"CAR-T cells; KIP-1, dose 5000 nM, day 0",75%
same,% viability,"CAR-T cells; KIP-1, dose 5000 nM, day 4",60%
same,% viability,"CAR-T cells; KIP-1, dose 5000 nM, day 8",87%
same,% viability,"CAR-T cells; KIP-1, dose 5000 nM, day 12",81.1%
same,effect on T cell expansion,CAR-T cells; at the doses tested (Table 40),little to no effect
same,suppression of cytokine production from CAR T cells (breadth and magnitude),CD19 CAR T cells,weaker in activity compared to filgotinib and other JAK inhibitors
same,"Suppression of cytokine production, IL-6 (IC50)","CD19 CAR T cells; CD3/CD28 stimulation, 72 h",Suppress
same,"Suppression of cytokine production, MCP-1 (IC50)","CD19 CAR T cells; CD3/CD28 stimulation, 72 h",Suppress
same,"Suppression of cytokine production, TNFa (IC50)","CD19 CAR T cells; CD3/CD28 stimulation, 72 h",Suppress
same,"Suppression of cytokine production, IL-6 (IC50)","CD19 CAR T cells; K562-CD19 stimulation, 72 h",Suppress
same,"Suppression of cytokine production, MCP-1 (IC50)","CD19 CAR T cells; K562-CD19 stimulation, 72 h",Suppress
same,"Suppression of cytokine production, MIG (IC50)","CD19 CAR T cells; K562-CD19 stimulation, 72 h",Suppress
same,"Suppression of cytokine production, TNFa (IC50)","CD19 CAR T cells; K562-CD19 stimulation, 72 h",Suppress
same,"Suppression of cytokine production, IL-6 (IC50)","CD19 CAR T cells; KIP-1 stimulation, 72 h",Suppress
same,"Suppression of cytokine production, MCP-1 (IC50)","CD19 CAR T cells; KIP-1 stimulation, 72 h",Suppress
same,"Suppression of cytokine production, TNFa (IC50)","CD19 CAR T cells; KIP-1 stimulation, 72 h",Suppress
same,IC50,"CD19 CAR T cells; read-out: Suppression of cytokine production, GMCSF (IC50), CD3/CD28 stimulation, 72 h",> 10 µM
same,IC50,"CD19 CAR T cells; read-out: Suppression of cytokine production, GMCSF (IC50), K562-CD19 stimulation, 72 h",> 10 µM
same,IC50,"CD19 CAR T cells; read-out: Suppression of cytokine production, GMCSF (IC50), KIP-1 stimulation, 72 h",> 10 µM
same,IC50,"CD19 CAR T cells; read-out: Suppression of cytokine production, GzB (IC50), CD3/CD28 stimulation, 72 h",> 10 µM
same,IC50,"CD19 CAR T cells; read-out: Suppression of cytokine production, GzB (IC50), K562-CD19 stimulation, 72 h",> 10 µM
same,IC50,"CD19 CAR T cells; read-out: Suppression of cytokine production, GzB (IC50), KIP-1 stimulation, 72 h",> 10 µM
same,IC50,"CD19 CAR T cells; read-out: Suppression of cytokine production, IFNg (IC50), CD3/CD28 stimulation, 72 h",> 10 µM
same,IC50,"CD19 CAR T cells; read-out: Suppression of cytokine production, IFNg (IC50), K562-CD19 stimulation, 72 h",> 10 µM
same,IC50,"CD19 CAR T cells; read-out: Suppression of cytokine production, IFNg (IC50), KIP-1 stimulation, 72 h",> 10 µM
same,IC50,"CD19 CAR T cells; read-out: Suppression of cytokine production, IL-2Ra (IC50), CD3/CD28 stimulation, 72 h",4.74 µM
same,IC50,"CD19 CAR T cells; read-out: Suppression of cytokine production, IL-2Ra (IC50), K562-CD19 stimulation, 72 h",> 10 µM
same,IC50,"CD19 CAR T cells; read-out: Suppression of cytokine production, IL-2Ra (IC50), KIP-1 stimulation, 72 h",> 10 µM
same,IC50,"CD19 CAR T cells; read-out: Suppression of cytokine production, IL-8 (IC50), CD3/CD28 stimulation, 72 h",> 10 µM
same,IC50,"CD19 CAR T cells; read-out: Suppression of cytokine production, IL-8 (IC50), K562-CD19 stimulation, 72 h",> 10 µM
same,IC50,"CD19 CAR T cells; read-out: Suppression of cytokine production, IL-8 (IC50), KIP-1 stimulation, 72 h",> 10 µM
same,IC50,"CD19 CAR T cells; read-out: Suppression of cytokine production, IL-10 (IC50), K562-CD19 stimulation, 72 h",4.01 µM
same,IC50,"CD19 CAR T cells; read-out: Suppression of cytokine production, IL-10 (IC50), KIP-1 stimulation, 72 h",3.93 µM
same,IC50,"CD19 CAR T cells; read-out: Suppression of cytokine production, MIG (IC50), CD3/CD28 stimulation, 72 h",> 10 µM
same,IC50,"CD19 CAR T cells; read-out: Suppression of cytokine production, MIG (IC50), KIP-1 stimulation, 72 h",> 10 µM
same,IC50,"CD19 CAR T cells; read-out: Suppression of cytokine production, MIP-1a (IC50), CD3/CD28 stimulation, 72 h",> 10 µM
same,IC50,"CD19 CAR T cells; read-out: Suppression of cytokine production, MIP-1a (IC50), K562-CD19 stimulation, 72 h",> 10 µM
same,IC50,"CD19 CAR T cells; read-out: Suppression of cytokine production, MIP-1a (IC50), KIP-1 stimulation, 72 h",> 10 µM
same,IC50,"CD19 CAR T cells; read-out: Suppression of cytokine production, MIP-1b (IC50), CD3/CD28 stimulation, 72 h",> 10 µM
same,IC50,"CD19 CAR T cells; read-out: Suppression of cytokine production, MIP-1b (IC50), K562-CD19 stimulation, 72 h",> 10 µM
same,IC50,"CD19 CAR T cells; read-out: Suppression of cytokine production, MIP-1b (IC50), KIP-1 stimulation, 72 h",> 10 µM
same,IC50,"CD19 CAR T cells; read-out: Suppression of cytokine production, Perforin (IC50), CD3/CD28 stimulation, 72 h",> 10 µM
same,IC50,"CD19 CAR T cells; read-out: Suppression of cytokine production, Perforin (IC50), K562-CD19 stimulation, 72 h",> 10 µM
same,IC50,"CD19 CAR T cells; read-out: Suppression of cytokine production, Perforin (IC50), KIP-1 stimulation, 72 h",> 10 µM
